Legend:
[1] = molecular target: Sodium-dependent serotonin transporter (Homo sapiens, UniProt P31645); test: Ability to inhibit [3H]citalopram binding to serotonin transporter in cynomolgus monkey striatum; assay type: tissue-based, Cercopithecidae; settings: target entry is the homologue from another species
[2] = Selectivity ratio is IC 50 value of dopamine receptor to that of serotonin 5-HT

Sequence of Sodium-dependent serotonin transporter (P31645 whole entry): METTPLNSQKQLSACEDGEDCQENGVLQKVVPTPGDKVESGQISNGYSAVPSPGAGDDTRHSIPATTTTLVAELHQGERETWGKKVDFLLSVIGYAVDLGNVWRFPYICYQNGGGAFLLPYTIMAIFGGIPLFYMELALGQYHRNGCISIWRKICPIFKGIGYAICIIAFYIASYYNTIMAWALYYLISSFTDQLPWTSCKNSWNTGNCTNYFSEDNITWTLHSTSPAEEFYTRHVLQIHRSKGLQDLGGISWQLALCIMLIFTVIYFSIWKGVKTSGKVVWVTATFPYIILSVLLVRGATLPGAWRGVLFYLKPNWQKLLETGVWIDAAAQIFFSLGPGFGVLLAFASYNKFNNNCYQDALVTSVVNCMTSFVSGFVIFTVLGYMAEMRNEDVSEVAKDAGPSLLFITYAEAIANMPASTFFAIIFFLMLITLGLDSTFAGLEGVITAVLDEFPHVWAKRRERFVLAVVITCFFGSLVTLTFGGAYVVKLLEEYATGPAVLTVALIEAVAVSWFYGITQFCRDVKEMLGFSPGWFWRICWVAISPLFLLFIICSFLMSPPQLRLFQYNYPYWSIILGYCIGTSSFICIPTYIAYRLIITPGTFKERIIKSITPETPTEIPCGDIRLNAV

Compound	IC50 [1] [nM]	Selectivity ratio [2]
COC(=O)[C@H]1[C@@H](c2ccc(F)cc2)C[C@H]2CC[C@H]1N2C	160	
COC(=O)C1C(c2cccc(Br)c2)CC2CCC1N2C (configuration not stated)	20.4	3
COC(=O)C1C2CCC(CC1c1ccc(Cl)cc1)N2 (configuration not stated)	1.63	1
COC(=O)C1C(c2cccc(I)c2)CC2CCC1N2C (configuration not stated)	9.88	0.4
COC(=O)C1C2CCC(CC1c1ccc(Cl)c(Cl)c1)N2 (configuration not stated)	1.4	
COC(=O)C1C(c2ccc(Cl)c(Cl)c2)CC2CCC1N2C (configuration not stated)	2.47	2
COC(=O)C1C(c2ccc(I)cc2)CC2CCC1N2C (configuration not stated)	2.53	2
